Laboratory results taken from ChEMBL document CHEMBL5725495, “Heterocyclylamines as PI3K inhibitors” (2017).

Assay: A2 PI3Kdelta Scintillation Proximity Assay: Lipid kinase substrate, phosphoinositol-4,5-bisphosphate (PIP2), are purchased from Echelon Biosciences (Salt Lake City, Utah). PI3K isoforms α, β, δ and γ are purchased from Millipore (Bedford, Mass.). ATP, MgCl2, DTT, EDTA, MOPS and CHAPS are purchased from Sigma-Aldrich (St. Louis, Mo.). The kinase reaction are conducted in clear-bottom 96-well plate from Thermo Fisher Scientific in a final volume of 24 μL. Inhibitors are first diluted serially in DMSO and added to the plate wells before the addition of other reaction components. The final concentration of DMSO in the assay is 0.5%. The PI3K assays are carried out at room temperature in 20 mM MOPS, pH 6.7, 10 mM MgCl2, 5 mM DTT and CHAPS 0.03%. The reaction mixture is prepared containing 50 μM PIP2, kinase and varying concentration of inhibitors. Reactions are initiated by the addition of ATP containing 2.2 μCi [γ-33P]ATP to a final concentration of 1000 μM. The final concentration of PI3K isoforms α, β, δ and γ in the assay were 1.3, 9.4, 2.9 and 10.8 nM, respectively. Reactions are incubated for 180 minutes and terminated by the addition of 100 μL of 1 M potassium phosphate pH 8.0, 30 mM EDTA quench buffer. A 100 μL aliquot of the reaction solution are then transferred to 96-well Millipore MultiScreen IP 0.45 μm PVDF filter plate (The filter plate is prewetted with 200 μL 100% ethanol, distilled water, and 1 M potassium phosphate pH 8.0, respectively). The filter plate is aspirated on a Millipore Manifold under vacuum and washed with 18×200 μL wash buffer containing 1 M potassium phosphate pH 8.0 and 1 mM ATP. After drying by aspiration and blotting, the plate is air dried in an incubator at 37° C. overnight. Packard TopCount adapter (Millipore) is then attached to the plate followed with addition of 120 μL Microscint 20 scintillation cocktail (Perkin Elmer) in each well. After the plate sealing, the radioactivity of the product is determined by scintillation counting on Topcount (Perkin-Elmer). IC50 determination is performed by fitting the curve of percent control activity versus the log of the inhibitor concentration using the GraphPad Prism 3.0 software.
Set-up: species or system Homo sapiens

Structure (SMILES) | IC50
COc1c(C(C)n2nc(C)c3c(N)ncnc32)cc(Cl)c(C)c1C1CN(C[C@H](C)O)C1 (stereo partly drawn) | < 0.01 µM
COc1c(C(C)n2nc(C(F)F)c3c(N)ncnc32)cc(C#N)c(C)c1C1CN(C[C@H](C)O)C1 (stereo partly drawn) | < 0.01 µM
COc1c(C(C)n2nc(C)c3c(N)ncnc32)cc(Cl)c(C#N)c1C1CN(CCO)C1 (stereo not drawn) | < 0.01 µM
COc1c([C@@H](C)n2nc(C(F)F)c3c(N)ncnc32)cc(Cl)c(F)c1C1CN(C)C1 | < 0.01 µM
CCOc1c([C@H](C)n2nc(C)c3c(N)ncnc32)cc(Cl)c(C#N)c1C1CN(C(C)CO)C1 (stereo partly drawn) | < 0.01 µM
COc1c([C@@H](C)n2nc(C)c3c(N)ncnc32)cc(Cl)c(C#N)c1C1CN(C(C)CO)C1 (stereo partly drawn) | < 0.01 µM
CCOc1c(C(C)n2nc(C)c3c(N)ncnc32)cc(Cl)c(F)c1C1CN(C[C@H](C)O)C1 (stereo partly drawn) | < 0.01 µM
CCOc1c([C@@H](C)n2nc(C)c3c(N)ncnc32)cc(Cl)c(C#N)c1C1CN(C(C)CO)C1 (stereo partly drawn) | < 0.01 µM
COc1c([C@@H](C)n2nc(C)c3c(N)ncnc32)cc(Cl)c(C#N)c1C1CN(C2CCOC2)C1 (stereo partly drawn) | < 0.01 µM
COc1c(C(C)n2nc(C)c3c(N)ncnc32)cc(Cl)c(C)c1-c1ccc(C(=O)N(C)C)nc1 (stereo not drawn) | < 0.01 µM
COc1c([C@@H](C)n2nc(C)c3c(N)ncnc32)cc(Cl)c(C#N)c1C1CN(CC2CCOC2)C1 (stereo partly drawn) | < 0.01 µM
CCOc1c([C@H](C)n2nc(C)c3c(N)ncnc32)cc(Cl)c(C#N)c1C1CN(CCOC)C1 | < 0.01 µM
COc1c([C@H](C)n2nc(C)c3c(N)ncnc32)cc(Cl)c(C#N)c1C1CN(C(C)CO)C1 (stereo partly drawn) | < 0.01 µM
CCOc1c(C(C)n2nc(C)c3c(N)ncnc32)cc(Cl)c(C)c1-c1ccc(C(=O)N(C)C)nc1 (stereo not drawn) | < 0.01 µM
COc1c(C(C)n2cc(C)c3c(N)ncnc32)cc(Cl)c(C#N)c1C1CN(C(C)C)C1 (stereo not drawn) | < 0.01 µM
COc1c([C@H](C)n2nc(C)c3c(N)ncnc32)cc(Cl)c(C#N)c1C1CN(CC2CCOC2)C1 (stereo partly drawn) | < 0.01 µM
COc1c([C@@H](C)n2nc(C(F)F)c3c(N)ncnc32)cc(Cl)c(F)c1C1CN(CCO)C1 (single isomer, unassigned) | < 0.01 µM
CCOc1c([C@@H](C)n2nc(C)c3c(N)ncnc32)cc(Cl)c(F)c1C1CN(C(C)C)C1 (single isomer, unassigned) | < 0.01 µM
